Patent publication US10987359B2, “Oxadiazepinone derivatives and methods of treating hepatitis B infections” (priority 2016, dated 2021)
Read-outs that look alike come from different tables or passages of the source.

Test system: HBV
Assay: HBV replication inhibition assay (BDNA assay) in HepG2.2.15 cells
Assay type: cell-based
Conditions: HepG2.2.15 cells, read-out: DNA EC50
Method: HBV replication inhibition by the disclosed compounds were determined in cells infected or transfected with HBV or cells with stably integrated HBV, such as HepG2.2.15 cells (Sells et al. 1987). In this example, HepG2.2.15 cells were maintained in cell culture medium containing 10% fetal bovine serum (FBS), Geneticin, L-glutamine, penicillin and streptomycin. HepG2.2.15 cells were seeded in 96-well plates at a density of 40,000 cells/well and were treated with serially diluted compounds at a final DMSO concentration of 0.5% either alone or in combination by adding drugs in a checker box format. Cells were incubated with compounds for three days, after which medium was removed and fresh medium containing compounds was added to cells and incubated for another three days. At day 6, supernatant was removed and treated with DNase at 37° C. for 60 minutes, followed by enzyme inactivation at 75° C. for 15 minutes. Encapsidated HBV DNA was released from the virions and covalently linked HBV polymerase by incubating in lysis buffer (Affymetrix QS0010) containing 2.5 μg proteinase K at 50° C. for 40 minutes. HBV DNA was denatured by addition of 0.2 M NaOH and detected using a branched DNA (BDNA) QuantiGene assay kit according to manufacturer recommendation (Affymetrix). HBV DNA levels were also quantified using qPCR, based on amplification of encapsidated HBV DNA extraction with QuickExtraction Solution (Epicentre Biotechnologies) and amplification of HBV DNA using HBV specific PCR probes that can hybridize to HBV DNA and a fluorescently labeled probe for quantitation. In addition, cell viability of HepG2.2.15 cells incubated with test compounds alone or in combination was determined by using CellTitre-Glo reagent according to the manufacturer protocol (Promega). The mean background signal from wells containing only culture medium was subtracted from all other samples, and percent inhibition at each compound concentration was calculated by normalizing to signals from HepG2.2.15 cells treated with 0.5% DMSO using equation E1. % inhibition=(DMSOave−Xi)/DMSOave×100% E1: […]
where DMSOave is the mean signal calculated from the wells that were treated with DMSO control (0% inhibition control) and Xi is the signal measured from the individual wells. EC50 values, effective concentrations that achieved 50% inhibitory effect, were determined by non-linear fitting using Graphpad Prism software (San Diego, Calif.) and equation E2: Y=Y min+(Y max−Y min)/(1+10(Log EC50−X)×HillSlope) E2: […]
where Y represents percent inhibition values and X represents the logarithm of compound concentrations.
Selected disclosed compounds were assayed in the HBV replication assay (BDNA assay), as described above, and a representative group of these active compounds is shown in Table 7. […] In Table 7, “A” represents 1<EC50≤100; “B” represents 100<EC50≤500; “C” represents 500<EC50≤1000; and “D” represents EC50>1000.

[1] = Hepatitis B virus, HepG2.2.15, HBV replication assay (BDNA assay)

SMILES | EC50 [1] [nM] | EC50 (HBV replication assay (BDNA assay)) [nM]
C[C@@H]1Cc2nn3c(c2CN1C(=O)Nc1cc(C(F)(F)F)ccc1F)C(=O)N(C)O[C@H](CO)C3 (relative stereo) [Compound 157_D1, (4S*,9R)—N-[2-fluoro-5-(trifluoromethyl)phenyl]-4-(hydroxymethyl)-2,9-dimethyl-1-oxo-5,8,9,11-tetrahydro-4H-pyrido[2,3]pyrazolo[2,4-d][1,2,5]oxadiazepine-10-carboxamide] | 1 to 100 | –
C[C@@H]1Cc2nn3c(c2CN1C(=O)Nc1cc(C(F)(F)F)ccc1F)C(=O)N(C)O[C@@H](CO)C3 (relative stereo) [Compound 157_D2, (4R*,9R)—N-[2-fluoro-5-(trifluoromethyl)phenyl]-4-(hydroxymethyl)-2,9-dimethyl-1-oxo-5,8,9,11-tetrahydro-4H-pyrido[2,3]pyrazolo[2,4-d][1,2,5]oxadiazepine-10-carboxamide] | 1 to 100 | –
CN1OC(CO)Cn2nc3c(c2C1=O)CN(C(=O)Nc1ccc(F)c(C(F)(F)F)c1)CC3 (single isomer, unassigned) [Compound 011_E1, (S*)—N-(4-fluoro-3-(trifluoromethyl)phenyl)-4-(hydroxymethyl)-2-methyl-1-oxo-1,4,5,8,9,11-hexahydropyrido[4′,3′:3,4]pyrazolo[5,1-d][1,2,5]oxadiazepine-10(2H)-carboxamide] | 1 to 100 | –
CN1OC(CO)Cn2nc3c(c2C1=O)CN(C(=O)Nc1ccc(F)c(C(F)(F)F)c1)CC3 (single isomer, unassigned) [Compound 011_E2, (R*)—N-(4-fluoro-3-(trifluoromethyl)phenyl)-4-(hydroxymethyl)-2-methyl-1-oxo-1,4,5,8,9,11-hexahydropyrido[4′,3′:3,4]pyrazolo[5,1-d][1,2,5]oxadiazepine-10(2H)-carboxamide] | – | 1 to 100
CN1OC(CO)Cn2nc3c(c2C1=O)CN(C(=O)Nc1cc(F)c(F)c(Cl)c1)CC3 (single isomer, unassigned) [Compound 028_E1, (S*)—N-(3-chloro-4,5-difluorophenyl)-4-(hydroxymethyl)-2-methyl-1-oxo-1,4,5,8,9,11-hexahydropyrido[4′,3′:3,4]pyrazolo[5,1-d][1,2,5]oxadiazepine-10(2H)-carboxamide] | 1 to 100 | –
CN1OC(CO)Cn2nc3c(c2C1=O)CN(C(=O)Nc1ccc(F)c(Cl)c1)CC3 (single isomer, unassigned) [Compound 031_E1, (S*)—N-(3-chloro-4-fluorophenyl)-4-(hydroxymethyl)-2-methyl-1-oxo-1,4,5,8,9,11-hexahydropyrido[4′,3′:3,4]pyrazolo[5,1-d][1,2,5]oxadiazepine-10(2H)-carboxamide] | 1 to 100 | –
CN1OC(CO)Cn2nc3c(c2C1=O)CN(C(=O)Nc1ccc(F)c(Br)c1)CC3 (single isomer, unassigned) [Compound 032_E1, (S*)—N-(3-bromo-4-fluorophenyl)-4-(hydroxymethyl)-2-methyl-1-oxo-1,4,5,8,9,11-hexahydropyrido[4′,3′:3,4]pyrazolo[5,1-d][1,2,5]oxadiazepine-10(2H)-carboxamide] | 1 to 100 | –
CN1OC(CO)Cn2nc3c(c2C1=O)CN(C(=O)Nc1ccnc(Br)c1F)CC3 (single isomer, unassigned) [Compound 033_E1, (S*)—N-(2-bromo-3-fluoropyridin-4-yl)-4-(hydroxymethyl)-2-methyl-1-oxo-1,4,5,8,9,11-hexahydropyrido[4′,3′:3,4]pyrazolo[5,1-d][1,2,5]oxadiazepine-10(2H)-carboxamide] | 1 to 100 | –
CN1OC(CO)Cn2nc3c(c2C1=O)CN(C(=O)Nc1ccc(F)c(C#N)c1)CC3 (single isomer, unassigned) [Compound 034_E1, (S*)—N-(3-cyano-4-fluorophenyl)-4-(hydroxymethyl)-2-methyl-1-oxo-1,4,5,8,9,11-hexahydropyrido[4′,3′:3,4]pyrazolo[5,1-d][1,2,5]oxadiazepine-10(2H)-carboxamide] | 1 to 100 | –
Cc1cc(NC(=O)N2CCc3nn4c(c3C2)C(=O)N(C)OC(CO)C4)ccc1F (single isomer, unassigned) [Compound 035_E1, (S*)—N-(4-fluoro-3-methylphenyl)-4-(hydroxymethyl)-2-methyl-1-oxo-1,4,5,8,9,11-hexahydropyrido[4′,3′:3,4]pyrazolo[5,1-d][1,2,5]oxadiazepine-10(2H)-carboxamide] | 1 to 100 | –
CN1OC(CF)Cn2nc3c(c2C1=O)CN(C(=O)Nc1cccc(Cl)c1)CC3 (single isomer, unassigned) [Compound 037_E1, (S*)—N-(3-chlorophenyl)-4-(fluoromethyl)-2-methyl-1-oxo-1,4,5,8,9,11-hexahydropyrido[4′,3′:3,4]pyrazolo[5,1-d][1,2,5]oxadiazepine-10(2H)-carboxamide] | 1 to 100 | –
CN1OC(CF)Cn2nc3c(c2C1=O)CN(C(=O)Nc1ccc(F)c(Cl)c1)CC3 (single isomer, unassigned) [Compound 038_E1, (S*)—N-(3-chloro-4-fluorophenyl)-4-(fluoromethyl)-2-methyl-1-oxo-1,4,5,8,9,11-hexahydropyrido[4′,3′:3,4]pyrazolo[5,1-d][1,2,5]oxadiazepine-10(2H)-carboxamide] | 1 to 100 | –
CN1OC(CF)Cn2nc3c(c2C1=O)CN(C(=O)Nc1ccc(F)c(C(F)(F)F)c1)CC3 (single isomer, unassigned) [Compound 039_E1, (S*)—N-(4-fluoro-3-(trifluoromethyl)phenyl)-4-(fluoromethyl)-2-methyl-1-oxo-1,4,5,8,9,11-hexahydropyrido[4′,3′:3,4]pyrazolo[5,1-d][1,2,5]oxadiazepine-10(2H)-carboxamide] | 1 to 100 | –
CN1OC(CF)Cn2nc3c(c2C1=O)CN(C(=O)Nc1ccc(F)c(Br)c1)CC3 (single isomer, unassigned) [Compound 040_E1, (S*)—N-(3-bromo-4-fluorophenyl)-4-(fluoromethyl)-2-methyl-1-oxo-1,4,5,8,9,11-hexahydropyrido[4′,3′:3,4]pyrazolo[5,1-d][1,2,5]oxadiazepine-10(2H)-carboxamide] | 1 to 100 | –
CN1OC(CF)Cn2nc3c(c2C1=O)CN(C(=O)Nc1ccnc(Br)c1F)CC3 (single isomer, unassigned) [Compound 041_E1, (S*)—N-(2-bromo-3-fluoropyridin-4-yl)-4-(fluoromethyl)-2-methyl-1-oxo-1,4,5,8,9,11-hexahydropyrido[4′,3′:3,4]pyrazolo[5,1-d][1,2,5]oxadiazepine-10(2H)-carboxamide] | 1 to 100 | –
CN1OC(CF)Cn2nc3c(c2C1=O)CN(C(=O)Nc1ccc(F)c(C#N)c1)CC3 (single isomer, unassigned) [Compound 042_E1, (S*)—N-(3-cyano-4-fluorophenyl)-4-(fluoromethyl)-2-methyl-1-oxo-1,4,5,8,9,11-hexahydropyrido[4′,3′:3,4]pyrazolo[5,1-d][1,2,5]oxadiazepine-10(2H)-carboxamide] | 1 to 100 | –
Cc1cc(NC(=O)N2CCc3nn4c(c3C2)C(=O)N(C)OC(CF)C4)ccc1F (single isomer, unassigned) [Compound 043_E1, (S*)—N-(4-fluoro-3-methylphenyl)-4-(fluoromethyl)-2-methyl-1-oxo-1,4,5,8,9,11-hexahydropyrido[4′,3′:3,4]pyrazolo[5,1-d][1,2,5]oxadiazepine-10(2H)-carboxamide] | 1 to 100 | –
